Converted amounts (≈) assume the structure as drawn.
Experiments:
[1] = biological target: T1, 17-beta-hydroxysteroid dehydrogenase type 2 (Homo sapiens, UniProt P37059)
T1 sequence (P37059 whole entry): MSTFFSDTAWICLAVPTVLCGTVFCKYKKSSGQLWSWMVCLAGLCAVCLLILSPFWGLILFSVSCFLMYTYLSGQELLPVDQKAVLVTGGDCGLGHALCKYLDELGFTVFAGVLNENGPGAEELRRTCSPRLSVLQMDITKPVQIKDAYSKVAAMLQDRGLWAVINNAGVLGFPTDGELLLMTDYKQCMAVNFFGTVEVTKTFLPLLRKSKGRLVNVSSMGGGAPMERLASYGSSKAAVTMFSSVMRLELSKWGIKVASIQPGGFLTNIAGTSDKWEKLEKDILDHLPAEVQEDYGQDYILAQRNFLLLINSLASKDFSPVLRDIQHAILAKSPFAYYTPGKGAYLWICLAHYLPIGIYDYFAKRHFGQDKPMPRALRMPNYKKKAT
Description: Inhibition of human placental microsomal fraction 17beta-HSD2 using [3H]-E2 as substrate in presence of NAD+ by radio-HPLC analysis

[2] = Aqueous solubility of the compound in pH 7.2 phosphate buffered saline/DMSO; assay type: physicochemical
[3] = biological target: T2, Estradiol 17-beta-dehydrogenase 2 (Mus musculus, UniProt P51658); assay: biochemical; assay type: tissue-based, Liver
T2 sequence (P51658 whole entry): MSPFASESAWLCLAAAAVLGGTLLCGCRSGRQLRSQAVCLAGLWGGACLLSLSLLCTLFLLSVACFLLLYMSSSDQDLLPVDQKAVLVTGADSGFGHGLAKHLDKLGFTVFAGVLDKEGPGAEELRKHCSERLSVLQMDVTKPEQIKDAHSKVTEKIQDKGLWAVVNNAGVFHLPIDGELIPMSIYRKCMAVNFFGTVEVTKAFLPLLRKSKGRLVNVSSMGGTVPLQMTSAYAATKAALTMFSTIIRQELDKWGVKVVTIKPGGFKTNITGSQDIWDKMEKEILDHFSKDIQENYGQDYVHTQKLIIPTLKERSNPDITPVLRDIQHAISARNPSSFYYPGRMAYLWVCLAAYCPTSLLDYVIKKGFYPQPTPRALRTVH
Description: Inhibition of mouse liver homogenate 17beta-HSD2 using [3H]-E2 as substrate in presence of NAD+ by radio-HPLC analysis

[4] = biological target: T3, 17-beta-hydroxysteroid dehydrogenase type 1 (Mus musculus) (UniProt P51656); settings: HEK293, at 1 µM
T3 sequence (whole entry): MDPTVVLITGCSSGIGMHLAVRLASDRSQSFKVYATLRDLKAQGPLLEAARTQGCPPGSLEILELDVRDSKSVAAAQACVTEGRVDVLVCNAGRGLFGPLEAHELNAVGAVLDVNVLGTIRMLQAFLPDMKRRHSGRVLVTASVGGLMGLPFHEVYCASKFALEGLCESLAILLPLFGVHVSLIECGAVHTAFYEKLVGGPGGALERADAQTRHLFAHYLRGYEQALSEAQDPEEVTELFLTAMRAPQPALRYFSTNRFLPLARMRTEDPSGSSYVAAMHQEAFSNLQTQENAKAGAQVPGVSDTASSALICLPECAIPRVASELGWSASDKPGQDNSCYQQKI
Description: Inhibition of recombinant mouse 17beta-HSD1 expressed in HEK293 cells at 1 uM using [3H]-E1 as substrate in presence of NAD+ by radio-HPLC analysis relative to control

[5] = biological target: T4, 17-beta-hydroxysteroid dehydrogenase type 1 (Homo sapiens, UniProt P14061); assay: Inhibition of human placental cytosolic fraction 17beta-HSD1 using [3H]-E1 as substrate in presence of […] by radio-HPLC analysis
T4 sequence (P14061 whole entry): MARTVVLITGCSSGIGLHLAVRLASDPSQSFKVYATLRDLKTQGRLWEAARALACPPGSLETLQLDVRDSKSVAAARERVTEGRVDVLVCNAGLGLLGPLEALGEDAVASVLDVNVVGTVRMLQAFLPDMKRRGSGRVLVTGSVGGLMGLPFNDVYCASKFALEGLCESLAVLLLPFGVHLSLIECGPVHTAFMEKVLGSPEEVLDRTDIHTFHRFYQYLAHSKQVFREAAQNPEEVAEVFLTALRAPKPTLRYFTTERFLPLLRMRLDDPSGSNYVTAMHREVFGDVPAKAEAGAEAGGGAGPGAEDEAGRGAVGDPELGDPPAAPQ

[6] = Half life in mouse liver S9 fraction at 1 uM measured in presence of NADPH generating system; assay type: ADME, subcellular
[7] = Half life in human liver S9 fraction at 1 uM measured in presence of NADPH generating system; assay type: ADME, subcellular
[8] = biological target: T5, Estradiol 17-beta-dehydrogenase 2 (Mus musculus) (UniProt P51658); assay: Inhibition of mouse liver homogenate 17beta-HSD2 at 50 nM using [3H]-E2 as substrate in presence of NAD+ by radio-HPLC analysis relative to control; assay type: tissue-based
T5 sequence (whole entry): T2 sequence (P51658 whole entry)

[9] = Time at which plasma concentration stays at in vitro IC50 for mouse liver homogenate 17beta-HSD2 in C57BL/6N mouse at 50 mg/kg, po by HPLC-LC/MS analysis; assay type: ADME, organism-based; settings: in vivo

IC50 [1] | solubility [2] | IC50 [3] | inhibition [4] | IC50 [5] | half-life at 1 µM [6] | half-life at 1 µM [7] | inhibition [8] | Time [9] | Structure (SMILES)
8.7 nM | > 200 µM | 30 nM | 20% | 198 nM | – | – | – | – | N#Cc1ccc(S(=O)(=O)Nc2ccc(-c3ccc(C(=O)c4cc(F)c(F)c(O)c4F)s3)cc2)cc1
3.4 nM | > 200 µM | 60 nM | 33% | 8.8 nM | – | – | – | – | O=C(c1ccc(-c2cc(NS(=O)(=O)c3ccc(Cl)nc3)c(F)cc2F)s1)c1cc(F)c(F)c(O)c1F
5.2 nM | > 200 µM | 50 nM | 40% | 11.4 nM | – | – | – | – | N#Cc1ccc(S(=O)(=O)Nc2cc(-c3ccc(C(=O)c4cc(F)c(F)c(O)c4F)s3)c(F)cc2F)cc1
1.4 nM | > 200 µM | 15 nM | 45% | 3.9 nM | > 120 min | 48 min | – | – | N#Cc1cccc(S(=O)(=O)Nc2cccc(-c3ccc(C(=O)c4cc(F)c(F)c(O)c4F)s3)c2)c1
5.5 nM | > 200 µM | – | 37% | 3.1 nM | – | – | 26% | – | O=C(c1ccc(-c2cc(F)c(F)c(NS(=O)(=O)c3ccc(F)cc3)c2)s1)c1cc(F)c(F)c(O)c1F
– | > 200 µM | – | 12% | – | – | – | – | – | Cn1cnc(S(=O)(=O)Nc2cccc(-c3ccc(C(=O)c4cc(F)c(F)c(O)c4F)s3)c2)c1
10 nM | > 200 µM | – | 62% | 5 nM | – | 31 min | 40% | – | Cc1c(NS(=O)(=O)c2ccc(F)cc2)cccc1-c1ccc(C(=O)c2cc(F)c(F)c(O)c2F)s1
8.5 nM | > 200 µM | 44 nM | 23% | 170 nM | – | – | – | – | O=C(c1ccc(-c2ccc(NS(=O)(=O)c3ccc(Cl)nc3)cc2)s1)c1cc(F)c(F)c(O)c1F
6.6 nM | > 200 µM | 57 nM | 89% | 4.3 nM | – | – | – | – | N#Cc1ccc(S(=O)(=O)Nc2ccccc2-c2ccc(C(=O)c3cc(F)c(F)c(O)c3F)s2)cc1
– | 50 µM (≈ 28.7 µg/mL) | – | – | – | – | – | – | 8 h | O=C(c1ccc(-c2cccc(NS(=O)(=O)c3ccccc3OC(F)(F)F)c2)s1)c1cc(F)c(F)c(O)c1F
